# From patent US20030211547A1 (priority 2002, published 2003)
# Like-named read-outs stand apart in the source and are kept apart here.
# Assays:
# C. elegans [1] = assay: Aldicarb sensitivity (paralysis) of C. elegans; type: in vivo
# Text: (§1) Based on studies of other known mutants in C. elegans, hypersensitivity to aldicarb may indicate an increase in synaptic transmission of acetylcholine compared with wild-type animals.
# C. elegans [2] = test system: C. elegans
# Text: The F2 population was screened to identify animals that were homozygous for recessive mutations or heterozygous for dominant mutations that alter sensitivity to the effects of ethanol on locomotion. Wild-type C. elegans normally move with a sinusoid pattern of locomotion, but when exposed to high concentrations of ethanol, they display extreme, reversible (after the removal of ethanol) uncoordination and paralysis. Animals that are resistant to the effects of ethanol display the sinusoid pattern of locomotion even in the presence of high concentrations of ethanol. To identify the mutants, animals of the F2 generation were washed from their plates into 1.5 ml tubes, rinsed free of bacteria and incubated in a solution of 400 mM ethanol for 30-50 min. The worms were then transferred to the center of 100 mm petri plates that held media containing 400 mM ethanol and a circle of E. coli (OP50) bacteria on the periphery of the media. […] Animals that moved to the bacteria quickly and with a wild-type pattern of locomotion were identified as ethanol-resistant candidates.
# The slo-1 gene is expressed in most, if not all neurons, and in body wall muscle but not in pharyngeal muscle. […] BK4.1 has the slo-1 cdNA fused with the promoter from the C. elegans body muscle myosin (myo-3) gene, which is expressed exclusively in body muscle. We transformed animals homozygous for a known null mutation of slo-1(js118) with each of these DNA constructs separately where the concentration of the BK3.1 or BK4.1 constructs was 20 ng/μ1 in the injection solution. So that we could identify transformed progeny of the injected animals we coinjected a DNA construct that expresses the green fluorescent protein (GFP) in neurons with BK3.1 and a construct that expresses GFP in body muscle with BK4.1. In this way we could examine the progeny of the injected animals under a UV microscope and any animals showing GFP fluorescence have been transformed with the injected DNA. If transformed animals are picked to individual plates and their progeny examined for the presence of GFP, only the animals that are germ-line transformants will have progeny expressing GFP.
# (§2) To rule out the possibility of hyperactivity contributing to the resistance seen in slo-1, we compared the level of resistance caused by mutations in slo-1 with the resistance induced by mutations in other regulators of neuron activity including loss-of-function mutations in dgk-1 and goa-1 and a gain-of-function mutation in egl-30. Each of these mutants appears phenotypically hyperactive with increased amplitude of body bends and hyperactive egg laying. […] When SLO-1 is absent the ethanol […] in the nervous system and its effects are greatly minimized.
# C. elegans [3] = test system: C. elegans; remark: listed apart in the source
# Text: These mutants were examined for the effect of ethanol on two behaviors other than locomotion: egg laying and pharyngeal pumping. […] Unlike wild-type worms, the egg-laying behavior of BZ6, BZ7 and BZ73 worms was unaffected by high doses of ethanol.
# as §2
# C. elegans [4] = test system: C. elegans; remark: listed apart in the source
# Text: as §1
# BK channels = BK channels (Homo sapiens, UniProt Q12791); conditions: cited from earlier work
# BK channels, sequence (Q12791 whole entry): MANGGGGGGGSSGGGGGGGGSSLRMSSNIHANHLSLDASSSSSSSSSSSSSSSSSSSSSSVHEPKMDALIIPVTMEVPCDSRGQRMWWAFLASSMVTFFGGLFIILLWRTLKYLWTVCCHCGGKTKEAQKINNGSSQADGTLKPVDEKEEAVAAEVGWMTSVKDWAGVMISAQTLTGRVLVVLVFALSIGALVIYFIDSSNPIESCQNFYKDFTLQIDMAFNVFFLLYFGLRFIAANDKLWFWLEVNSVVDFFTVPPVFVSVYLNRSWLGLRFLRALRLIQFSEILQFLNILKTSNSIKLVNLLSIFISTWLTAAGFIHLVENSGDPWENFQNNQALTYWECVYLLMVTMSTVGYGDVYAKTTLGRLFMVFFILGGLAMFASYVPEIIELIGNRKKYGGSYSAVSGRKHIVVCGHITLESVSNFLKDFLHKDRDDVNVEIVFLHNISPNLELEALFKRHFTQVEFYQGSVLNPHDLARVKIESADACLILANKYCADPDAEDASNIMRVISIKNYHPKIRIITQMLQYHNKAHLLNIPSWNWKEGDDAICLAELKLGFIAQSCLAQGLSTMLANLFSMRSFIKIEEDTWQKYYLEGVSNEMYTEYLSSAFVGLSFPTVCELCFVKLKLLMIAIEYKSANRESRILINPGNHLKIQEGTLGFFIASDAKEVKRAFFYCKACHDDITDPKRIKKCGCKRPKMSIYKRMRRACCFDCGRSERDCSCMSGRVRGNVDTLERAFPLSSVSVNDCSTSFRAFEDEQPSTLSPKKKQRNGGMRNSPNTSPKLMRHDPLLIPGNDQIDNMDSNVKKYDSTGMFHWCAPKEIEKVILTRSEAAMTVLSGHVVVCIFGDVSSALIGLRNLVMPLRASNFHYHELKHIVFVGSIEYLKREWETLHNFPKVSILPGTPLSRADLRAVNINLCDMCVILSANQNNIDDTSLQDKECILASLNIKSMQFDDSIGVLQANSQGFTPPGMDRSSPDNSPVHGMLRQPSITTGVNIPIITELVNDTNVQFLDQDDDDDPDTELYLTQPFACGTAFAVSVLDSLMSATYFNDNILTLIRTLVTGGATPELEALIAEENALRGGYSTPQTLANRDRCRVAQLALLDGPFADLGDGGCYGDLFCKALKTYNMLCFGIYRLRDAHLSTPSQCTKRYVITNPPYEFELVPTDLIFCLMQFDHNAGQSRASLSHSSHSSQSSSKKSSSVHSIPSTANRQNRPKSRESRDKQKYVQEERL
compound,measurement,setting,value
CNC(=O)O/N=C/C(C)(C)SC [aldicarb],concentrations of aldicarb at which paralysis is displayed,"C. elegans [1]; ethanol-resistant mutants (BZ6, BZ7, BZ8, BZ73)",0.1 to 0.25 mM
same,effect of aldicarb,"C. elegans [1]; wild-type animals, 0.1-0.25 mM",only mildly affect
CCO [ethanol],decrease in speed,C. elegans [2]; dgk-1(sy428),40%
same,decrease in speed,C. elegans [2]; egl-30(js126gf),40%
same,decrease in speed,C. elegans [2]; slo-1(js118) animals carrying a BK3.1 transgene (SLO-1 only in neurons),70%
same,decrease in speed,C. elegans [2]; slo-1(js118) animals carrying a BK4.1 transgene (SLO-1 only in body muscle),little or no decrease in speed
same,decrease in speed,"C. elegans [2]; slo-1(js118) animals, intoxicating doses of ethanol",no decrease in speed
same,decrease in speed,"C. elegans [2]; three slo-1 mutations js118, eg6 and eg73, ethanol dose giving 60% decrease in wild-type",no decrease in speed
same,effect on locomotion,"C. elegans [2]; wild-type animals, 400 mM ethanol",severe uncoordination and lethargy
same,decrease in speed,"C. elegans [2]; wild-type animals, intoxicating doses of ethanol",60%
same,effect on egg-laying,"C. elegans [3]; BZ6, BZ7 and BZ73 worms, high doses of ethanol",unaffected
same,effect on egg-laying,"C. elegans [3]; BZ6, BZ7 and BZ73 worms, low doses (e.g. 50-100 mM exogenous concentration)",lay more eggs than wild-type worms
same,effect on egg-laying,"C. elegans [3]; BZ8, high doses of ethanol",did not display this ethanol-resistance
same,decrease in egg laying,C. elegans [3]; egl-30(js126),72%
same,decrease in egg laying,C. elegans [3]; goa-1(n1134),80%
same,decrease in egg laying,C. elegans [3]; slo-1(eg24),12%
same,decrease in egg laying rate,C. elegans [3]; slo-1(eg142),no decrease in egg laying rate
same,effect on egg-laying,"C. elegans [3]; wild-type C. elegans, high doses (e.g. 400 mM exogenous concentration)",almost completely suppress egg-laying
same,decrease in egg laying,C. elegans [3]; wild-type strain,96%
c1ccc([C@H]2CN3CCSC3=N2)cc1 [levamisole],response to levamisole,"C. elegans [4]; BZ6, BZ7 and BZ73, 60-100 μM",wild-type response
same,response to levamisole,C. elegans [4]; BZ8,hypersensitive
"Iberiotoxin (QFTDVDCSVSKECWSVCKDLFGVDRGKCMGKKCRCYQ; UniProt P24663 1-37, looked up)",effective concentration as blocker of BK channels,BK channels,about 10 nM
